Key:
[1] = Bortezomib as such; cited from earlier work
[2] = stress testing and accelerated stability studies; cited from earlier work
[3] = system: Female New-Zealand White Rabbits; settings: rabbit, in vivo
Experimental: Also Local tolerability/tissue reaction of Bortezomib 3.5 mg/0.2 mL compared with Velcade (Reference product) in Female New-Zealand White Rabbits.
The study was conducted to assess the local tolerance of Bortezomib in comparison with Velcade (Reference product) in New Zealand White Rabbits by single subcutaneous or intravenous route.

Compound | water solubility [1] | stability in aqueous solution for injection [2] | External observation of the site of injection: signs of local intolerance [3] | Microscopic signs of local intolerance ([3]; iv) | animals with signs of local intolerance observed microscopically ([3]; sc)
CC(C)C[C@H](NC(=O)[C@H](Cc1ccccc1)NC(=O)c1cnccn1)B(O)O [Bortezomib, [(1R)-3-methyl-1-[[(2s)-3-phenyl-2-(pyrazine-2-carbonylamino)propanoyl]amino]butyl]boronic acid] | poor water solubility | unstable |  |  | 
Velcade |  |  | did not reveal any signs of local intolerance | no signs of local intolerance | 50 % of animals
